For 24 compounds, max activity, negative = growth inhibition and AC50 results are on record in PubChem BioAssay AID602185 (Broad Institute, 2012).

Each structure is given as a SMILES string. Calls of active or inactive are those of the source.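 Rule for the calls: active = compounds curbing yeast growth with fitted half-effect dose at most twice their top tested dose; inconclusive = flat fit at 30 to 70% inhibition, or poor fit; inactive = the rest.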

Experiment [1] can be described thus: Candida glabrata glucose growth inhibition – glucose medium, OD600, dry powder, dose response (AID 602185). The following applies: Candida glabrata growth in glucose, OD600, 48 h, hits give low values.
Experiment [2] has as its system Candida glabrata growth in glucose, OD600, 48 h. The experiment is described as above.

Regarding `CCOC(=O)N1C(=O)C2(CCCCC2)N(c2ccc(C)cc2)C1=S`, the max activity, negative = growth inhibition in experiment [1] (at 0.08 µM) is 13.5% (inactive). `C=CCNC(=S)N/N=C(\C)c1ccccn1`: in experiment [2], the AC50 was 6.14 µM.

Consider `O=C(NNC(=S)Nc1ccc(Cl)c(Cl)c1)c1ccccn1`, for which the concentration at half-maximal activity (AC50) in experiment [2] is 10.1 µM.

With `CCCC(=O)NC(c1cccs1)c1cc(Cl)c2cccnc2c1O` (centres undefined), the AC50 in experiment [2] was 3.27 µM. On the same count and under the same terms, the same measure for `O=C(Oc1c(Cl)cc(Cl)c2cccnc12)c1ccco1`: 1.14 µM. As to `O=C(Nc1nc(-c2ccccc2)cs1)c1ccc(Br)s1`, the max activity, negative = growth inhibition in experiment [1] (at 0.3 µM) is 11.1% (inactive). With `O=C(Nc1nnc(-c2ccc3c(c2)CCCC3)o1)c1ccc(Cl)cc1Cl`, the max activity, negative = growth inhibition in experiment [1] (at 0.16 µM) is 21% (inactive).

In the case of `O=C(Nc1nc(-c2ccc3c(c2)CCCC3)cs1)c1ccccc1`, the max activity, negative = growth inhibition in experiment [1] (at 0.3 µM) is 19.6% (inactive).

For `Oc1c(CN2CCN(c3ccccc3)CC2)cc(Cl)c2cccnc12`, in experiment [1] (at 0.35 µM), the max activity, negative = growth inhibition was 12.9% (inactive).

Regarding `CN1CCN(C(c2ccc(C(F)(F)F)cc2)c2ccc3cccnc3c2O)CC1` (centres undefined), the half-maximal activity concentration (AC50) in experiment [2] is 2.18 µM.

On to `Cc1cc(C)n(-c2nc3ccccc3c(=O)n2OCC#N)n1`, for which the max activity, negative = growth inhibition in experiment [1] (at 19.5 µM) is -17.9% (inactive). For `O=C(Nc1nc(-c2ccccn2)cs1)c1ccc(Cl)s1`, in experiment [2], the AC50 is 9.57 µM. In the case of `COc1ccc(-c2nnc(NC(=O)c3ccc(S(=O)(=O)N4CCCc5ccccc54)cc3)o2)cc1`, the max activity, negative = growth inhibition in experiment [1] (at 0.3 µM) is 12.6% (inactive). With `C/C(=N\NC(=O)c1cc2ccccc2cc1O)c1ccccn1`, the max activity, negative = growth inhibition in experiment [1] (at 5 µM) was 18.8% (inactive).

Regarding `O=C(Nc1nc(-c2ccccn2)cs1)c1ccccc1`, the max activity, negative = growth inhibition in experiment [1] (at 19.5 µM) was -14.7% (inactive). In the case of `Cc1ccc(C(=O)Nc2nnc(-c3ccccc3)o2)cc1C`, the max activity, negative = growth inhibition in experiment [1] (at 0.16 µM) is 18.7% (inactive). As for `Oc1c(C(c2ccc(Cl)cc2)N2CCCC2)ccc2cccnc12` (centres undefined), in experiment [1] (at 1.2 µM), the max activity, negative = growth inhibition was 12% (inactive).

For the compound `NC(=O)c1cccc(C(=O)Nc2nc(-c3ccc4c(c3)CCCC4)cs2)c1`, in experiment [1] (at 2.6 µM), the max activity, negative = growth inhibition was 14.1% (inactive).

As to `Oc1c(CN2CCc3ccccc3C2)cc(Cl)c2cccnc12`, the max activity, negative = growth inhibition in experiment [1] (at 10 µM) is 15.2% (inactive). In the case of `Cc1ccc(C(=O)Nc2nc(-c3ccccn3)cs2)cc1`, the max activity, negative = growth inhibition in experiment [1] (at 19.5 µM) is -34.8% (inactive). For the compound `Cc1ccc(-c2nc3c(Cl)cc(Cl)cc3c(=O)n2O)cc1`, the AC50 in experiment [2] was 1.75 µM. In the case of `O=C(Nc1nnc(-c2ccc3c(c2)CCCC3)o1)c1ccccc1`, the max activity, negative = growth inhibition in experiment [1] (at 2.6 µM) was -10.5% (inactive). Consider `O=C(Nc1nc(-c2ccccn2)cs1)c1ccc(Br)s1`, for which, in experiment [2], the AC50 was 8.64 µM. For `Oc1c(C(c2ccccc2Cl)N2CCCCC2)ccc2cccnc12` (centres undefined), the max activity, negative = growth inhibition in experiment [1] (at 19.5 µM) was -24.3% (inactive).

One may read the AC50 as the concentration at which the activity in the assay is half-maximal.
